Values joined by “and” are separate entries in the source; they are usually repeats but may differ in a detail not shown here. Identical values can stand only once. Where a SMILES comes first, the peptide text is derived from it.
Legend:
CFU-S [1] = assay: in vivo inhibition of the entry into cycle of the CFU-S induced by an injection of Ara-C; design: species or system mice of Balb/C or CBA strain; conditions: for % of CFU-S in DNA synthesis: protocol II, i.p.; for biological activity compared with the natural peptide: synthetic versus natural peptide, tables I, II and III
Procedure: The biological activity of the fractions is measured by in vivo inhibition tests of the entry into cycle of the CFU-S, induced by an injection of Ara-C.
The CFU-S of the mouse, normally quiescent, enter into cycle after an injection of Ara-C.
The number of CFU-S is determined by the technique of J. E. Till and E. A. McCulloch, Radiat. Res. 14, (1961), 213-222, whose principle rests on the capacity of CFU-S to form macroscopic colonies in the spleen. These colonies are clones descended from one CFU-S.
The proportion of CFU-S in S phase is determined by the method of A. J. Becker et al., Blood, 26, (1965), 296-308, based on the principle of cellular suicides. The incubation of the cells with a tritiated thymidine (precursor of DNA) solution leads to the selective death of the cells in phase of DNA synthesis by integration of a lethal dose of radioactivity (tritium) into the DNA molecule.
The tests are performed on SPF (Specific Pathogen Ffree)mice of Balb/C or CBA strain, aged from 2 to 3 months.
1. The control groups receive by the i.p. route the following treatment:
Time 0: Ara-C (10 mg--protocol I or 20 mg--protocol II) dissolved in 0.2 ml of saline;
Time 6H: 0.2 ml of saline;
Time 8H: sacrifice (protocol I);
Time 12H: sacrifice (protocol II).
2. The treated groups receive by the i.p. route:
Time 0: Ara-C (10 mg--protocol I or 20 mg--protocol II) dissolved in 0.2 ml of saline.
Time 6h: fraction to be tested dissolved in 0.2 ml of saline;
Time 8H: sacrifice (protocol I):
Time 12H: sacrifice (protocol II). [drawing 1]
For each of the groups, the bone marrow of the animals is collected and suspended in 2 ml of Medium 199 (EUROBIO). After the numbering and suitable dilution, 2 aliquots of 5×10^6 nucleated cells are incubated at 37° C. for 20 min. either with 1 ml of Medium 199 (Test A), or with 1 ml of tritiated thymidine (200 μCi) (Test B). A cellular suspension of 0.2 ml containing 8×10^4 to 1.2×10^5 nucleated cells is injected intravenously into the retro-orbital sinus of the irradiated receiver animals (9 Gy, 8 mice per experimental plot). Nine days later, the receiver mice are sacrificed, their spleen taken out and fixed in Bouin fluid (1% picric acid: 720 g; formol: 240 g; acetic acid: 4 g, per 1 l of fluid). After some hours of fixation, the nodules visible macroscopically are counted.
If N and N' are the average numbers of the nodules obtained on the spleens of the receivers having received cells coming form tests A and B respectively, the proportion of CFU-S in phase of DNA synthesis is calculated by the formula: [formula]

EMT6 tumor = assay: regression of EMT6 tumors under Ara-C plus inhibitor; format: in vivo, mice; conditions: EMT6 tumor carriers, Ara-C at 0, 7, 24 and 30 hours, inhibitor at 26 hours
[2] = lethality in the treated mice; format: in vivo; conditions: at the doses used
CFU-S [3] = assay: toxicity with respect to CFU-S; format: in vivo, mice; conditions: at the doses used
[4] = survival of animals treated with lethal doses of Ara-C; format: in vivo, mice; conditions: Ara-C 4×925 mg/kg at 0, 7, 24 and 30 hours; tested fraction once at 26 hours
Procedure: The animals receive fractionated doses of Ara-C (4×925 mg/kg) at times 0, 7, 24 and 30 hours. The tested fraction is administered at once 26 hours after the first injection of Ara-C. The survival of the animals is estimated 15-30 days after the treatment.

Nc1ccn([C@@H]2O[C@H](CO)[C@@H](O)[C@@H]2O)c(=O)n1 [Ara-C, cytosine arabinoside, reference compound]
percentages of CFU-S in phase of DNA synthesis (CFU-S [1]; ARA-C alone, Table III batch A series (5 exp.)): 40.7 ± 9.3% | percentages of CFU-S in phase of DNA synthesis (CFU-S [1]; ARA-C alone, Table III batch B series (2 exp.)): 47.4 ± 9% | percentages of CFU-S in phase of DNA synthesis, mean (CFU-S [1]; ARA-C alone, mean of Table II tests 1-8): 38.7% | percentages of CFU-S in phase of DNA synthesis, mean (CFU-S [1]; ARA-C alone, mean of Table III series A and B): 44.1% | % of CFU-S in DNA synthesis (CFU-S [1]; Ara-C (20 mg) alone): 43 ± 9%

CC(=O)N[C@@H](CO)C(=O)N[C@@H](CC(=O)O)C(=O)N[C@@H](CCCCN)C(=O)N1CCC[C@H]1C(=O)O [inhibitor, n--acetyl-seryl-aspartyl-lysyl-proline] (Ac-SDKP-OH)
effect on the therapeutic action of Ara-C with respect to tumor cells (EMT6 tumor): does not prevent the therapeutic action of Ara-C with respect to tumor cells | survival of the treated animals (EMT6 tumor; comparable with bone marrow grafting): permits the survival of the treated animals | lethality in the treated mice [2]: does not result in any lethality | toxicity with respect to CFU-S (CFU-S [3]): devoided of toxicity with respect to CFU-S | percentages of CFU-S in phase of DNA synthesis (CFU-S [1]; ARA-C + natural peptide 100 ng/mouse, bone marrow batch A (5 exp.)): 12.6 ± 14.8% | percentages of CFU-S in phase of DNA synthesis (CFU-S [1]; ARA-C + natural peptide 100 ng/mouse, bone marrow batch B (2 exp.)): 2.99 ± 13% | percentages of CFU-S in phase of DNA synthesis, mean (CFU-S [1]; ARA-C + natural peptide, mean of batches A and B): 7.8% | % of CFU-S in DNA synthesis (CFU-S [1]; Ara-C (20 mg) + inhibitor (100 ng per mouse)): 7 ± 4% | dosage at which the fraction is active in the mouse (CFU-S [1]; homogeneous fraction after reverse phase HPLC): about 100 ng/mouse | entry of the CFU-S into DNA synthesis (S phase) (CFU-S [1]; inhibitor injected 6 hours after Ara-C): prevents the entry of the CFU-S into DNA synthesis | survival of the animals 15-30 days after the treatment [4]: enabled the definitive survival of a large number of animals

CC(=O)N[C@@H](CO)C(=O)N[C@@H](CC(=O)O)C(=O)N[C@@H](CCCCN)C(=O)N1CCC[C@H]1C(=O)O [synthetic tetrapeptide, Ac-S-D-K-P--OH] (Ac-SDKP-OH)
percentages of CFU-S in phase of DNA synthesis (CFU-S [1]; ARA-C + synthetic tetrapeptide 25 ng/mouse, test 6, second synthesis): 19% | percentages of CFU-S in phase of DNA synthesis (CFU-S [1]; ARA-C + synthetic tetrapeptide 50 ng/mouse, test 5, second synthesis): 13% | percentages of CFU-S in phase of DNA synthesis (CFU-S [1]; ARA-C + synthetic tetrapeptide 100 ng/mouse, tests 4, 7, 8, second synthesis): 6% and 10% | percentages of CFU-S in phase of DNA synthesis, mean (CFU-S [1]; ARA-C + synthetic tetrapeptide, mean of tests 1-8 (25-100 ng/mouse)): 10.5% | biological activity compared with the natural peptide (CFU-S [1]): possesses the biological properties of the natural peptide | biological activity compared with the natural peptide (CFU-S [1]; listed as synthetic peptide): quite similar activity to that obtained with a natural peptide

— US5114926A, “Tetrapeptide inhibiting the entry into cycle of hemopoietic stem cells processes for its preparation, and its uses” (Institut National De La Sante Et De La Recherche Medicale, priority 1986, dated 1992)
